Measured values: patent US8129406B2, “Nonpeptide inhibitors of matrix metalloproteinases” (Southern Research Institute, priority 2004, dated 2012)

What was measured:
[1] = test system: nontumorigenic human fibroblasts cells (HF); test: Functional evaluation in Amgel models, nontumorigenic fibroblasts; assay type: cell-based
Endopeptidase = test: Enzyme inhibition assay, endopeptidase (other zinc-protease control); assay type: biochemical; settings: for IC50: read-out: Inhibition Potencies, IC50, Endopeptidase
Procedure: (§1) Human rMMP-2 and -9 were purified in active forms, and purified MMP-1, -3 and -13 were obtained from commercial sources (Chemicon; Temecula, Calif.) in zymogen form and were activated by 1 mM APMA or PCMB treatment (2 hrs at 37° C.). For kinetic studies, a standard fluorimetric assay based on hydrolysis of fluorogenic synthetic substrate (1 μM of McaPLGLDpaAR) was used. For each assay, target MMP (1 μM) and increasing concentrations of test compound were incubated at 25° C. for 30-60 min and the rate of substrate hydrolysis was measured by Perkin-Elmer fluorometer at an excitation 328 nm and an emission 393 nm settings. Both concentration and time-dependent cleavage were monitored. Controls included trypsin (non-specific cleavage) and bacterial collagenase (total cleavage) and other zinc-protease (ACE, endopeptidase). IC50 values (the concentration at which 50% enzyme activity is inhibited) were determined by plots of % activity versus negative log of agent concentration. The IC50 values were converted to Ki values using the equation, Ki=IC50/(1+S/Km). The Km values (μM) were calculated from the […] values of 3-5 separate experiments. Inhibition kinetics of various MMPs were also determined using substrate-degradation ELISA kits from Chemicon (Temecula, Calif.). See C. Knight, et al., FEBS Lett., 1992, 296, 263-266; L. Windsor, et al., Biochem. Biophys. Acta […], 1334, 261-272, which are incorporated by reference herein for their teachings of enzyme inhibition assays.

MMP-3 = target: T1, MMP-3 (Homo sapiens, UniProt P08254); test: Enzyme inhibition assay, fluorometric substrate degradation, MMP-3; assay type: biochemical; settings: Minienzyme used; read-out: Inhibition Potencies, IC50, MMP-3
T1 construct: purchased Chemicon
Procedure: as §1
MMP inhibitor selectivity determinations: Both quantitative labeled-substrate and FITC-biopeptide (matrix-specific) assays were used to examine the selective inhibition of MMP activities. Substrate specificity for MMP-1, -2, and -9 was assessed by degradation of labeled-collagen I and IV. Typically, MMP-dependent biomatrix degradation was monitored in the presence and absence of candidate compounds (0.5-500 μm) after 60-90 min incubations. Inhibitory potency and selectivity was also analyzed using a gelatin or collagen zymography followed by densitometric analysis. […]

MMP-9 = target: T2, MMP-9 (Homo sapiens, UniProt P14780); test: Enzyme inhibition assay, fluorometric substrate degradation, MMP-9; assay type: biochemical; settings: purified human rMMP-9, fluorogenic substrate; read-out: Inhibition Potencies, IC50, MMP-9
T2 construct: Human rMMP-2 and -9 were purified in active forms; made in house
Procedure: (§2) For kinetic studies, a standard fluorimetric assay based on hydrolysis of fluorogenic synthetic substrate (1 μM of McaPLGLDpaAR) was used. […] Both concentration and time-dependent cleavage were monitored. Controls included trypsin (non-specific cleavage) and bacterial collagenase (total cleavage) and other zinc-protease (ACE, endopeptidase). […] The IC50 values were converted to Ki values using the equation, Ki=IC50/(1+S/Km). […] Inhibition kinetics of various MMPs were also determined using substrate-degradation ELISA kits from Chemicon (Temecula, Calif.). See C.
(§3) Substrate specificity for MMP-1, -2, and -9 was assessed by degradation of labeled-collagen I and IV. […] Inhibitory potency and selectivity was also analyzed using a gelatin or collagen zymography followed by densitometric analysis. Labeled collagen I or IV degradation assay (zymography) was used for M-1, -2 and -9 activities and their inhibition. Bacterial collagenase and EDTA (10 mM) was included as positive and negative controls. In situ zymography film technique was also used for measurement of MMP-2 and MMP-9 (gelatinolytic) activities and their inhibition by drug treatment in target cells and tissue samples.

[2] = Cell proliferation and cell viability at the tested concentrations; assay type: cell-based; settings: at the tested concentrations (data not shown)
MMP-2 = target: T3, MMP-2 (Homo sapiens, UniProt P08253); test: Enzyme inhibition assay, fluorometric substrate degradation, MMP-2; assay type: biochemical; settings: purified human rMMP-2, fluorogenic substrate; read-out: Inhibition Potencies, IC50, MMP-2
T3 construct: Human rMMP-2 and -9 were purified in active forms; made in house
T3 sequence (P08253 110-660): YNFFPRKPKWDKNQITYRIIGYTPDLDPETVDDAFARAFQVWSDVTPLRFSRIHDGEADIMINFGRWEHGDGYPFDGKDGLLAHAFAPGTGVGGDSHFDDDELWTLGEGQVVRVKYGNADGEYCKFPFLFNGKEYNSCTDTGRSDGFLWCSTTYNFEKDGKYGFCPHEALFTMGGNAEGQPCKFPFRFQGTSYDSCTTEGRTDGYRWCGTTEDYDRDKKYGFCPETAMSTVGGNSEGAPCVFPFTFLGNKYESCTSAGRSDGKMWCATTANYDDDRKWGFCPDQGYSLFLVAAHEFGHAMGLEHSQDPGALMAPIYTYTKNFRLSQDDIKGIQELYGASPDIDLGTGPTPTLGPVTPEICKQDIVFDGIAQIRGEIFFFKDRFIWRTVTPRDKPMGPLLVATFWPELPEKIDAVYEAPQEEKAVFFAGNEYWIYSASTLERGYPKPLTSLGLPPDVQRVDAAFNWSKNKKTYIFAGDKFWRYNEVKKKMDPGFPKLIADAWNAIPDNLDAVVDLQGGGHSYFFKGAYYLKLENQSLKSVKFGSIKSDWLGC
Procedure: as §2, §3

HT-1080B [3] = test: Amgel human tumor angiogenesis bioassay, HT-1080B; assay type: cell-based; settings: 72 hours incubation at 50-100 μM
Procedure: (§4) Human tumor angiogenesis bioassay: Angiogenesis was induced by coculture of human endothelial cells (HUVECs) with tumor cells or defined angiogenic factor (FGF). Tumor cells media (from 24-hour serum-free cultures) were used to induce a biological angiogenic response using human glioma cell lines producing different concentrations of VEGF or by using purified factors such as 20 μM FGF. Endothelial cells were seeded onto Amgel-coated filters and induced with a angiogenic media+/−candidate MMP inhibitors. Varying concentrations of test compounds (0.5-500 μM) and incubation times (1-7 days) were applied, and endothelial cell differentiation (sprouting and tubule-like capillary formation) were examined by light microscopy and a computerized digital system.
(§5) Evaluation of the compounds 1c and 2c in Amgel human tumor invasion and angiogenesis models (72 hours incubation at 50-100 μM) was performed using two human HT-1080 cancer cell sublines (HT-1080-B and HT-1080-R). The results of these assays with compound 2c are shown in Table 2 and FIG. 1 (data for compound 1 c not shown).

HF [4] = test: Amgel human tumor angiogenesis bioassay, HF; assay type: cell-based; settings: 72 hours incubation at 50-100 μM
Procedure: as §4, §5

HF [5] = test: Amgel human tumor cell invasion bioassay, HF; assay type: cell-based; settings: 72 hours incubation at 50-100 μM
HT-1080R [6] = test: Amgel human tumor angiogenesis bioassay, HT-1080R; assay type: cell-based; settings: 72 hours incubation at 50-100 μM
Procedure: as §4, §5

HT-1080B [7] = test: Amgel human tumor cell invasion bioassay, HT-1080B; assay type: cell-based; settings: 72 hours incubation at 50-100 μM
Procedure: (§6) Human tumor cell invasion bioassay: Amgel-coated filters (8 μm) were used as tissue biomatrix barriers placed between Lucite chambers. Labeled cells (50,000) were seeded onto reconstituted-Amgel filters (75 μg) and the lower chambers were filled with media containing 5% dialyzed serum. Test compounds (0.5-100 μM) were added and incubated for 72 hours. Contents from the lower chamber were collected to resolve cell-bound and free radioactivity. See G. Siegal, et al., Cancer Lett. 1993, 69, 123-132; L. Goodly, et al., Tumor Biology 1994, 15, 326-336; M. Ikeda, et al., Clin. Cancer. Res. 2000, 6, 3290-3296; R. Singh, et al., In Vitro Cell Develop. Biol., 2002, 38, 11.
as §5

HT-1080R [8] = test: Amgel human tumor cell invasion bioassay, HT-1080R; assay type: cell-based; settings: 72 hours incubation at 50-100 μM
Procedure: as §6, §5

T1 sequence (P08254 100-477, species assumed): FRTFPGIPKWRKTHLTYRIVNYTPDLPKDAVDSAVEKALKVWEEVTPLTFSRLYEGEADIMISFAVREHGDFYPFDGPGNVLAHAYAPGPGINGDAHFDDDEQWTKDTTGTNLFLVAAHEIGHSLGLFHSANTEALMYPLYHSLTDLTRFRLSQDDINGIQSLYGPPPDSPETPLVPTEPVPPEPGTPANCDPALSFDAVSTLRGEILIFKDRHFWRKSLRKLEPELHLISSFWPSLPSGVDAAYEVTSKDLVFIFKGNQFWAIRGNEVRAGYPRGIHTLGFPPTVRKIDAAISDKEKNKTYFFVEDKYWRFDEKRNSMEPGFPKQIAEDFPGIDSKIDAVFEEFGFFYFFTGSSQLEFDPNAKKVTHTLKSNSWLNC
T2 sequence (P14780 107-707 limits assumed): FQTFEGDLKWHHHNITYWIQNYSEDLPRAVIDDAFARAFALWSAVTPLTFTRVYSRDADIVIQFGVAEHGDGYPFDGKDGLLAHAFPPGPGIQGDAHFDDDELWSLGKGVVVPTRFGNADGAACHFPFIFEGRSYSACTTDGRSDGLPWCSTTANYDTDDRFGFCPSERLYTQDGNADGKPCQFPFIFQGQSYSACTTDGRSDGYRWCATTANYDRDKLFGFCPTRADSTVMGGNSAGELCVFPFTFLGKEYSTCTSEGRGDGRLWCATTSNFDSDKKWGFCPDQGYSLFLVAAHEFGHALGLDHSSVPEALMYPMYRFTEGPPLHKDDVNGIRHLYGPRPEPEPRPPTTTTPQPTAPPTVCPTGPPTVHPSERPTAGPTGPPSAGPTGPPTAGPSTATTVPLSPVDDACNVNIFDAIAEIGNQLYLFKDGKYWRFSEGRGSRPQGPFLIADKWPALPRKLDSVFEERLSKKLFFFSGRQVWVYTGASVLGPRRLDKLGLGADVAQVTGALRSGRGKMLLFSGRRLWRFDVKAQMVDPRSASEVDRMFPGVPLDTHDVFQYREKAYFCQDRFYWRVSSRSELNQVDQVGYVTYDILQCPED

SMILES | effect on nontumorigenic human fibroblasts cells (HF) [1] | melting point [°C] | IC50 (Endopeptidase) [nM] | IC50 (MMP-3) [nM] | IC50 (MMP-9) [nM] | effect on cell proliferation [2] | effect on cell viability [2] | IC50 (MMP-2) [nM] | % Inhibition, Tumor angiogenesis (HT-1080B [3]) [%] | % Inhibition, Tumor angiogenesis (HF [4]) | % Inhibition, Tumor invasion (HF [5]) | % Inhibition, Tumor angiogenesis (HT-1080R [6]) [%] | % Inhibition, Tumor invasion (HT-1080B [7]) [%] | % Inhibition, Tumor invasion (HT-1080R [8]) [%] | Inhibition Potencies, IC50, Endopeptidase (Endopeptidase)
O=C(NO)[C@@H]1CCCC[C@@H]1NS(=O)(=O)c1ccc(-c2ccccc2)cc1 (racemic) [compound 1c, (cis)-N-Hydroxy-2-[[(4-Biphenyl)sulfonyl]amino]cyclohexanecarboxamide] | neither compound 1c nor compound 2c had any effect | 74 to 76 | > 20000 | > 3000 | 175 | no effect | no effect | 150 | – | – | – | – | – | – | –
O=C(NO)[C@@H]1CCCC[C@H]1NS(=O)(=O)c1ccc(-c2ccccc2)cc1 (racemic) [compound 2c, (trans)-N-Hydroxy-2-[[(4-Biphenyl)sulfonyl]amino]cyclohexanecarbox-amide] | neither compound 1c nor compound 2c had any effect | 212 to 214 | > 20000 | > 3000 | 145 | no effect | no effect | 125 | 45 ± 4 | No effect | No effect | 40 ± 6 | 50 ± 8 | 60 ± 5 | –
O=C(NO)[C@@H]1CCCC[C@H]1NS(=O)(=O)c1ccc(Oc2ccccc2)cc1 (relative stereo) [compound 2d, (trans)-N-Hydroxy-2-[(4-Phenoxybenzenesulfonyl)amino]cyclohexane-carboxamide] | – | 182 to 184 | – | – | – | – | – | – | – | – | – | – | – | – | –
CNC(=O)[C@H](Cc1c[nH]c2ccccc12)NC(=O)[C@@H](CC(=O)NO)CC(C)C [GM-6001, reference compound] | – | – | – | 80 | – | – | – | – | – | – | – | – | – | – | not detectable
